According to ChEMBL document CHEMBL5696439 (Cancer Res, 2010):
Active and inactive are the calls of the source. The rule behind the calls is not given here.

Experiments:
[1] = molecular target: Tyrosine-protein kinase CSK (Homo sapiens) (UniProt P41240); assay: Inhibition of recombinant human full-length His-tagged CSK expressed in E. coli at 2 uM using Tyr 02 as substrate measured after 1 hr by Z'-LYTE assay relative to control
[2] = tested on: PC3MM2; assay: Induction of apoptosis in human PC3MM2 cells assessed as increase in G1 phase at 1 micromol/L incubated for 24 hrs by FACS analysis; type: functional, cell-based; details: dose 1.0 µmol/L
[3] = molecular target: Dual specificity protein kinase CLK2 (Homo sapiens) (UniProt P49760); assay: Inhibition of recombinant human GST-tagged CLK2 (137-498 residues) expressed in insect cells at 2 uM using Ser/Thr 06 as substrate measured after 1 hr by Z'-LYTE assay relative to control; details: Insect cell
[4] = molecular target: Tyrosine-protein kinase JAK3 (Homo sapiens) (UniProt P52333); assay: Inhibition of recombinant human GST-tagged JAK3 (781-1124 residues) expressed in insect cells at 2 uM using Tyr 06 as substrate measured after 1 hr by Z'-LYTE assay relative to control; details: Insect cell
[5] = Inhibition of recombinant human GST-tagged ROCK1 (1-552 residues) expressed in insect cells at 2 uM using Ser/Thr 13 as substrate measured after 1 hr by Z'-LYTE assay relative to control; details: Insect cell, condition cancer
[6] = molecular target: Proto-oncogene tyrosine-protein kinase Src (Homo sapiens) (UniProt P12931); assay: Inhibition of recombinant human full length His-tagged SRC expressed in insect cells at 2 uM using Tyr 02 as substrate measured after 1 hr by Z'-LYTE assay relative to control; details: Insect cell
Chain of Proto-oncogene tyrosine-protein kinase Src (Homo sapiens) (P12931 2-536 limits assumed): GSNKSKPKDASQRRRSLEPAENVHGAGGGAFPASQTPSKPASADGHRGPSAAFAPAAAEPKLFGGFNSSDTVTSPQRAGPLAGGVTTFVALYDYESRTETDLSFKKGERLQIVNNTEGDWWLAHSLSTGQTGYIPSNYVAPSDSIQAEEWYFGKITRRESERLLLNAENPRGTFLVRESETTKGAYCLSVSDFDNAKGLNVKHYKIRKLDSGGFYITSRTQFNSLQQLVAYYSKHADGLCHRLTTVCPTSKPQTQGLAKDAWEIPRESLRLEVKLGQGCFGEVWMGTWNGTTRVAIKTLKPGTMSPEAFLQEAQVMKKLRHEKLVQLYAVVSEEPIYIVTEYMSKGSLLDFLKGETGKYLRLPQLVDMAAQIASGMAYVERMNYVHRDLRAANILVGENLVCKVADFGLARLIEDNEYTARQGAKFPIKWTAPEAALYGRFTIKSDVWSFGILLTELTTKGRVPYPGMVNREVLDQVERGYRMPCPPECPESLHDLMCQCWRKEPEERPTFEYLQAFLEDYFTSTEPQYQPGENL

[7] = molecular target: G protein-coupled receptor kinase 5 (Homo sapiens) (UniProt P34947); assay: Inhibition of recombinant human full-length GST-tagged GRK5 expressed in insect cells at 2 uM using Ser/Thr 16 as substrate measured after 1 hr by Z'-LYTE assay relative to control; details: Insect cell
[8] = molecular target: Testis-specific serine/threonine-protein kinase 2 (Homo sapiens) (UniProt Q96PF2); assay: Inhibition of recombinant human full length His-tagged STK22B expressed in insect cells at 2 uM using Ser/Thr 04 as substrate measured after 1 hr by Z'-LYTE assay relative to control; details: Insect cell
[9] = molecular target: Serine/threonine-protein kinase Sgk3 (Homo sapiens) (UniProt Q96BR1); assay: Inhibition of recombinant human GST-tagged SGK3 (87-496 residues) expressed in insect cells at 2 uM using Ser/Thr 06 as substrate measured after 1 hr by Z'-LYTE assay relative to control; details: Insect cell
Chain of Serine/threonine-protein kinase Sgk3 (Homo sapiens) (Q96BR1 whole entry, the tested form may be a part): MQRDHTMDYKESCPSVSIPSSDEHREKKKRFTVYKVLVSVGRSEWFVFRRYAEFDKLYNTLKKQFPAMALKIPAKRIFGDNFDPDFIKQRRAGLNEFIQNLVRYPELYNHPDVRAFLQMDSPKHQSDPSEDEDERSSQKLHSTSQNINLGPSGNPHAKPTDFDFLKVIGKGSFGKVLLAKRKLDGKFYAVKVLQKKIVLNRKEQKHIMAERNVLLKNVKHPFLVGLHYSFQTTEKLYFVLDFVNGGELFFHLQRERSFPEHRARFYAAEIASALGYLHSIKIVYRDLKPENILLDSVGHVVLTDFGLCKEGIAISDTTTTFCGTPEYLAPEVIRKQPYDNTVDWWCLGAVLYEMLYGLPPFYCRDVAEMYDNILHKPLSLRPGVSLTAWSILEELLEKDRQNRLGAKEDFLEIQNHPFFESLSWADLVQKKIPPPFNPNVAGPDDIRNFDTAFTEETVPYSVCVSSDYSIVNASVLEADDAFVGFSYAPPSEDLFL

[10] = molecular target: Protein kinase C gamma type (Homo sapiens) (UniProt P05129); assay: Inhibition of recombinant human full length GST-tagged PRKCG expressed in insect cells at 2 uM using Ser/Thr 07 as substrate measured after 1 hr by Z'-LYTE assay relative to control; details: Insect cell
[11] = molecular target: Casein kinase II subunit alpha (Homo sapiens) (UniProt P68400); assay: Inhibition of recombinant human full-length His-tagged CSNK2A1 expressed in baculovirus expression system at 2 uM using Ser/Thr 11 as substrate measured after 1 hr by Z'-LYTE assay relative to control
Chain of Casein kinase II subunit alpha (Homo sapiens) (P68400 whole entry, looked up): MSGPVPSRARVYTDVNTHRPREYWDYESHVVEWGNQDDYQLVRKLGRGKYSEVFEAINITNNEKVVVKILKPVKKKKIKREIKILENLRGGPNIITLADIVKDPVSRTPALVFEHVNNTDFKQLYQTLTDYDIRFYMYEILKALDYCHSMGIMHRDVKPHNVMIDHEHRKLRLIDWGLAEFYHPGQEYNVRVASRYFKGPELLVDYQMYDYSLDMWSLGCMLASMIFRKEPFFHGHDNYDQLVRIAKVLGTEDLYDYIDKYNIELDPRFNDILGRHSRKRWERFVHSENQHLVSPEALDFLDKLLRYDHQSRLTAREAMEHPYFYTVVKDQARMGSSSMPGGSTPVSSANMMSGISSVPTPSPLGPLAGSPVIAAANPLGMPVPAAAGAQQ

[12] = molecular target: Serine/threonine-protein kinase pim-1 (Homo sapiens) (UniProt P11309); assay: Inhibition of recombinant human full length His-tagged PIM1 expressed in insect cells at 2 uM using Ser/Thr 07 as substrate measured after 1 hr by Z'-LYTE assay relative to control; details: Insect cell
Chain of Serine/threonine-protein kinase pim-1 (Homo sapiens) (P11309 whole entry, looked up): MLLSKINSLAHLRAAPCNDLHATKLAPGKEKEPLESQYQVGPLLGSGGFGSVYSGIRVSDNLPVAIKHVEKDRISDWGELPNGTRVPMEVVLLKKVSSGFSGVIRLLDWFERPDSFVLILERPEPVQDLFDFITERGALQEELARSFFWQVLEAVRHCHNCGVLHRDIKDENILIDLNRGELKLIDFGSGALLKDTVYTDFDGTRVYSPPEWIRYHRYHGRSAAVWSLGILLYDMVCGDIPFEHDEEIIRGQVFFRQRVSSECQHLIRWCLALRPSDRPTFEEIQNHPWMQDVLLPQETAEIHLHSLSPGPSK

[13] = molecular target: Dual specificity tyrosine-phosphorylation-regulated kinase 4 (Homo sapiens) (UniProt Q9NR20); assay: Inhibition of recombinant human full-length GST-tagged DYRK4 expressed in insect cells at 2 uM using Ser/Thr 09 as substrate measured after 1 hr by Z'-LYTE assay relative to control; details: Insect cell
[14] = molecular target: MAP kinase-activated protein kinase 3 (Homo sapiens) (UniProt Q16644); assay: Inhibition of recombinant human full length His-tagged MAPKAPK3 expressed in baculovirus expression system at 2 uM using Ser/Thr 04 as substrate measured after 1 hr by Z'-LYTE assay relative to control
Chain of MAP kinase-activated protein kinase 3 (Homo sapiens) (Q16644 whole entry, looked up, the tested form may be a part): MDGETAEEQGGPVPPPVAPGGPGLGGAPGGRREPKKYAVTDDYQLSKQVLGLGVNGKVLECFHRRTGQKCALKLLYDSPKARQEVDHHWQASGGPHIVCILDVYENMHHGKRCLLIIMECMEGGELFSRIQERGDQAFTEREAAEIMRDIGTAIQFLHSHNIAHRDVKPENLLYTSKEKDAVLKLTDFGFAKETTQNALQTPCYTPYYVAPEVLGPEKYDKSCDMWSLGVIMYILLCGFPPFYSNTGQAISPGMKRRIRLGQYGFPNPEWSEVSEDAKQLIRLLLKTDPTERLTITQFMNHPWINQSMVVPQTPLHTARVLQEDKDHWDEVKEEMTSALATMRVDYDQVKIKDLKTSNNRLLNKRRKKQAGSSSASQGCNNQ

[15] = tested on: Epidermal growth factor receptor (Homo sapiens), P00533 [L861Q]; assay: Inhibition of recombinant human GST-tagged EGFR L861Q mutant (668-1210 residues) expressed in insect cells at 2 uM using Tyr 04 as substrate measured after 1 hr by Z'-LYTE assay relative to control; details: Insect cell
Chain of Epidermal growth factor receptor (Homo sapiens), P00533 [L861Q] (P00533 whole entry L861Q, the tested form may be a part): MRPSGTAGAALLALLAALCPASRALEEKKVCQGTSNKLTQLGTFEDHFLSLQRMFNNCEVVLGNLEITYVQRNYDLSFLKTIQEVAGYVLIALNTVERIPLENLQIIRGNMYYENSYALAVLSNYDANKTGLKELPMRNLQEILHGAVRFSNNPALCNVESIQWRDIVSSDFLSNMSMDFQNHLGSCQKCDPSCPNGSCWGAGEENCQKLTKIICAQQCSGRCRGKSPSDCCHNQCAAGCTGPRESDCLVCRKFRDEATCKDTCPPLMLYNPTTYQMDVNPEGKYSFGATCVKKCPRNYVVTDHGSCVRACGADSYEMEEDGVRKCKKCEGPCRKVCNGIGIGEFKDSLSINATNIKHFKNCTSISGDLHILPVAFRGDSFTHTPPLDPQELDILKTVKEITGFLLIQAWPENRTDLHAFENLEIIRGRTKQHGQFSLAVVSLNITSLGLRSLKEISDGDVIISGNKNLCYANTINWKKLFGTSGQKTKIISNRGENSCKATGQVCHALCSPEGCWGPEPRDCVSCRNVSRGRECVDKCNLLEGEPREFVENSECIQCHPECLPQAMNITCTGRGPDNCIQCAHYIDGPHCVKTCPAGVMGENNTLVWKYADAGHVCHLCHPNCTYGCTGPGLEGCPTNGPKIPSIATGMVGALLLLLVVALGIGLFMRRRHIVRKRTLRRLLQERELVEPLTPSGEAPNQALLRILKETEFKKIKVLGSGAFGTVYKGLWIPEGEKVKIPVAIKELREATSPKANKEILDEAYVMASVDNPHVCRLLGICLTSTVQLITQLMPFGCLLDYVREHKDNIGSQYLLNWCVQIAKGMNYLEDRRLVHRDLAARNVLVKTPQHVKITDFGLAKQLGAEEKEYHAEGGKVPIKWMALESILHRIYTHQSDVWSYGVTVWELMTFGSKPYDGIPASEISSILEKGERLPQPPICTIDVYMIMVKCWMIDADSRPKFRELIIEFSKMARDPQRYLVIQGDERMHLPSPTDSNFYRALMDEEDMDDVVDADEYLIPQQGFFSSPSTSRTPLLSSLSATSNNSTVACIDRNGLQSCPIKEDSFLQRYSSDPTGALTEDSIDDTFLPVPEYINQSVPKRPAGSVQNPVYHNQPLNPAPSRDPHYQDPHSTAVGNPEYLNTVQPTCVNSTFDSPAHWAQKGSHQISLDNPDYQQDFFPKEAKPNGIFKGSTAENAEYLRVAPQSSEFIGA

[16] = tested on: MDA-MB-361; assay: Antiproliferative activity against human MDA-MB-361 cells assessed as cell growth inhibition incubated for 2 days by MTS assay; type: functional, cell-based; details: MDA-MB-361, 48 h
[17] = tested on: MDA-MB-361; assay: Induction of apoptosis in PI3K/mTOR hyperactive human MDA-MB-361 cells assessed as massive cell death at 0.001 to 100 micromol/L incubated for 48 hrs by FACS analysis; type: functional, cell-based; details: dose 0.001-100 µmol/L
[18] = tested on: A549; assay: Antitumor activity against human A549 cells xenografted in female nude mouse model assessed as suppression in tumor growth at 50 mg/kg, po qd administered as 5 days on/2 days off regimen for 4 cycles relative to control; type: functional; details: time 28 day
[19] = molecular target: Ribosomal protein S6 kinase alpha-1 (Homo sapiens) (UniProt Q15418); assay: Inhibition of recombinant human full length His-tagged RPS6KA1 expressed in insect cells at 2 uM using Ser/Thr 06 as substrate measured after 1 hr by Z'-LYTE assay relative to control; details: Insect cell
Chain of Ribosomal protein S6 kinase alpha-1 (Homo sapiens) (Q15418 whole entry): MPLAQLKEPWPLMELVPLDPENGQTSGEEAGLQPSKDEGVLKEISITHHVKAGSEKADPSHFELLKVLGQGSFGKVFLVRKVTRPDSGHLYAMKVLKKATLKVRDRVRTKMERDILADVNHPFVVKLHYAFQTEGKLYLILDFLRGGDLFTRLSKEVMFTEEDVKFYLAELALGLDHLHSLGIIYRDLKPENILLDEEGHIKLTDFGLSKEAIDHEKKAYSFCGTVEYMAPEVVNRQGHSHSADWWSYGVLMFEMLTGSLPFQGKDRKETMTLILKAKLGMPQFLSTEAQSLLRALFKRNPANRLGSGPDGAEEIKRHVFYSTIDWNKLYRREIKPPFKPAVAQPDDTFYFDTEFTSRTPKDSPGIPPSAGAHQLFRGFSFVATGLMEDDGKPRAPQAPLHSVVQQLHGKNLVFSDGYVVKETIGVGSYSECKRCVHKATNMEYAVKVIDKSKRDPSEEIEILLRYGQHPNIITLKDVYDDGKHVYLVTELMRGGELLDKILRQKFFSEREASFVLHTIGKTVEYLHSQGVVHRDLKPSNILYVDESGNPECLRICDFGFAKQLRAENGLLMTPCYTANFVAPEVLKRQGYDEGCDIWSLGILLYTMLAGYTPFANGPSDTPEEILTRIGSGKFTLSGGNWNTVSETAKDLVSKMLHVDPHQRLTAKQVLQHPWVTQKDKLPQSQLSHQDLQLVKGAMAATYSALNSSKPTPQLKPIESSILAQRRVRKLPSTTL

[20] = tested on: MDA-MB-361; assay: Induction of apoptosis in human MDA-MB-361 cells assessed as increase in G1 phase at 5 micromol/L incubated for 24 hrs by FACS analysis relative to control; type: functional; details: dose 5 µmol/L, at 5 µM
[21] = tested on: MDA-MB-361; assay: Induction of apoptosis in human MDA-MB-361 cells assessed as induction in cell death at 3 micromol/L incubated for 48 hrs by FACS analysis relative to control; type: functional; details: dose 3 µmol/L, at 3 µM
[22] = tested on: A549; assay: Induction of apoptosis in human A549 cells assessed as reduction in S phase at 1 micromol/L incubated for 24 hrs by FACS analysis; type: functional, cell-based; details: dose 1.0 µmol/L
[23] = tested on: MDA-MB-361; assay: Induction of apoptosis in human MDA-MB-361 cells assessed as decrease in AKT phosphorylation at S473 level at 0.05 to 5 micromol/L incubated for 48 hrs by Western blot analysis; type: functional, cell-based; details: dose 0.05-5 µmol/L
[24] = tested on: U-87 MG; assay: Antitumor activity against human U-87MG cells assessed as lactate production incubated for 24 hrs; type: functional, cell-based; details: U-87MG ATCC, dose 0.01-10 µmol/L
[25] = molecular target: Tyrosine-protein kinase Fgr (Homo sapiens) (UniProt P09769); assay: Inhibition of recombinant human full-length His-tagged FGR expressed in insect cells at 2 uM using Tyr 02 as substrate measured after 1 hr by Z'-LYTE assay relative to control; details: Insect cell
Chain of Tyrosine-protein kinase Fgr (Homo sapiens) (P09769 2-529 limits assumed): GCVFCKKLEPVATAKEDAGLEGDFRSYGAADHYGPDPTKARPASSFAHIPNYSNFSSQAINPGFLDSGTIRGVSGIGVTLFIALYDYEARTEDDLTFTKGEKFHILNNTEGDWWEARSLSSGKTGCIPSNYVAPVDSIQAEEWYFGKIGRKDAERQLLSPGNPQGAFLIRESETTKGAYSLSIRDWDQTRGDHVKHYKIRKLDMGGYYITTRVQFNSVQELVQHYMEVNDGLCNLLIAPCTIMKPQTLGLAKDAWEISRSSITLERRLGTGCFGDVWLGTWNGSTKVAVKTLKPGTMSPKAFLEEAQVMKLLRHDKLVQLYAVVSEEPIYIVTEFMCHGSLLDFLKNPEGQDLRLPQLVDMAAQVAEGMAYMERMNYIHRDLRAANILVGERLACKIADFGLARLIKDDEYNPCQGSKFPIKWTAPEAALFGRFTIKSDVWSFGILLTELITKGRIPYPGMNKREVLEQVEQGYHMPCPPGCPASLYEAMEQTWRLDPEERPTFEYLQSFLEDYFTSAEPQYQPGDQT

[26] = tested on: MDA-MB-468; assay: Antiproliferative activity against human MDA-MB-468 cells assessed as cell growth inhibition incubated for 24 hrs by MTS assay; type: functional, cell-based; details: MDA-MB-468, 24 h
[27] = molecular target: Mitogen-activated protein kinase 12 (Homo sapiens) (UniProt P53778); assay: Inhibition of recombinant human full length His-tagged MAPK12 expressed in baculovirus expression system at 2 uM using Ser/Thr 03 as substrate measured after 1 hr by Z'-LYTE assay relative to control
Chain of Mitogen-activated protein kinase 12 (Homo sapiens) (P53778 whole entry): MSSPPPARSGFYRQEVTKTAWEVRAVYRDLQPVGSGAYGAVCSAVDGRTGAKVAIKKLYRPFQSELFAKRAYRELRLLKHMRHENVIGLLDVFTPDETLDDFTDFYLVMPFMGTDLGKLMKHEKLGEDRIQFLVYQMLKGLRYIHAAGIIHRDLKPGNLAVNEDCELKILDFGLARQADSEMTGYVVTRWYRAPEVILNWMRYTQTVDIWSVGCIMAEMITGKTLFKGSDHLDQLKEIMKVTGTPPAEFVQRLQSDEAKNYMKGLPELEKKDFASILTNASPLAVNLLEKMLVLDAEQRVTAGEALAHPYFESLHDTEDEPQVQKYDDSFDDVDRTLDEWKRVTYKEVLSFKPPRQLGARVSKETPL

CNC(=O)Nc1ccc(-c2nc(N3CC4CCC(C3)O4)c3cnn(C4CCC5(CC4)OCCO5)c3n2)cc1
inhibition [1]: -1% | Activity [2]: Active | inhibition [3]: 0% | inhibition [4]: 0% | inhibition at 2 µM [5]: 5% | inhibition [6]: 3% | inhibition [7]: -4% | inhibition [8]: 2% | inhibition [9]: 3% | inhibition [10]: 11% | inhibition [11]: 0% | inhibition [12]: 1% | inhibition [13]: 4% | inhibition [14]: 1% | inhibition [15]: -1% | IC50 [16]: 50 nM | Activity [17]: Active | Activity [18]: 100% | inhibition [19]: 4% | Activity [20]: 12% | Activity [21]: 59% | Activity [22]: Active | Activity [23]: Active | Activity [24]: Dose-Dependent Effect | inhibition [25]: 1% | IC50 [26]: 25 nM | inhibition [27]: -2%
